Data published in publication PMC8892858 (ACS Omega, 2022).
“And” between values parts separate entries of the source, which are not always exact repeats. Equal values may be shown once. “Also recorded” adds a separate entry of the source. Where a name gives a salt, the structure may show the parent alone. Read-outs that look alike come from different tables or passages of the source.

Assays:
[1] = tested on: rRVFVΔNSs::Katushka; assay: microbe, parasite or virus in culture; assay type: cell-based, Rift Valley fever virus; settings: for IC50: read-out: IC50, dose-response curves of inhibition of RVFV infection (Figure 5A)
[2] = tested on: A549 cells
[3] = in vitro; settings: human
[4] = tested on: rRVFVΔNSs::Katushka; assay type: cell-based, Rift Valley fever virus
[5] = tested on: rRVFVΔNSs::Katushka; assay type: cell-based, Rift Valley fever virus; remark: listed apart in the source
[6] = tested on: A549 cells; assay type: cell-based, Human
[7] = Rift Valley fever virus, A549, 16 h, read-out: EC50 value
[8] = Rift Valley fever virus, A549, 16 h

Compound | Selectivity index [1] | EC50 [1, 7] [µM] | CC50 [3] [µM] | further results
1-(4-(Benzhydryloxy)butyl)-4-phenylpiperazine [Compound 16] |  |  |  | EC50 value [1]: reduced the antiviral activity significantly; EC50 ([1]; read-out: EC50 value): > 100 µM; CC50 [2]: > 300 µM
NCCCNCCOc1ccc(-c2ccccc2)cc1 [Compound 1, N1-(2-(Biphenyl-4-yloxy)ethyl)propane-1,3-diamine·2HCl] | 7.1 | 12 ± 1.3 | 86 ± 9 | 
c1ccc(-c2ccc(OCCN3CCCCC3)cc2)cc1 [Compound 4d, 1-(2-(Biphenyl-4-yloxy)ethyl)piperidine] |  | > 100 | > 300 | 
c1ccc(-c2ccc(OCCN3CCOCC3)cc2)cc1 [Compound 4e, 4-(2-(Biphenyl-4-yloxy)ethyl)morpholine] |  | > 100 | > 300 | 
NCCCCCCOc1ccc(-c2ccccc2)cc1 [Compound 5a, 6-(Biphenyl-4-yloxy)hexan-1-amine·HCl] | 3.6 | 12.1 ± 2.1 | 44.6 ± 0.3 | 
NCCOc1ccc(-c2ccccc2)cc1 [Compound 5b, 2-(Biphenyl-4-yloxy)ethanamine·HCl] | 8.1 | 37.3 ± 0.5 | > 300 | 
NCCCOc1ccc(-c2ccccc2)cc1 [Compound 5c, 3-(Biphenyl-4-yloxy)propan-1-amine] | 3.8 | 37.8 ± 6.7 | 147 ± 4 | 
c1ccc(-c2ccc(OCCN3CCNCC3)cc2)cc1 [Compound 5f, 1-(2-(Biphenyl-4-yloxy)ethyl)piperazine] | 4.2 | 38.7 ± 11.6 | 165 ± 22.9 | 
c1ccc(-c2ccc(OCCCN3CCNCC3)cc2)cc1 [Compound 5g, 1-(3-(Biphenyl-4-yloxy)propyl)piperazine] | < 2 | > 100 | 203 ± 53.5 | 
CN1CCN(CCCCOc2ccc(-c3ccccc3)cc2)CC1 [Compound 8c, 1-(4-(Biphenyl-4-yloxy)butyl)-4-methylpiperazine] | 2.2 | 61.7 ± 17.6 | 136.2 ± 1.2 | inhibition of RVFV RNA expression (qRT-PCR) [4]: unable to inhibit the viral RNA expressions
c1ccc(-c2ccc(OCCCCN3CCNCC3)cc2)cc1 [Compound 9a, 1-(4-(Biphenyl-4-yloxy)butyl)piperazine] | 5.8 | 12.8 ± 0.2 | 74.8 ± 1.2 | 
c1ccc(-c2ccc(OCCCCCN3CCNCC3)cc2)cc1 [Compound 9b, 1-(5-(Biphenyl-4-yloxy)pentyl)piperazine] |  | 11.7 ± 1.8 | 44.2 ± 16.6 | 
c1ccc(-c2ccc(OCCCCN3CCN(c4ccccc4)CC3)cc2)cc1 [Compound 11, 1-(4-(Biphenyl-4-yloxy)butyl)-4-phenylpiperazine] |  |  | > 300 | EC50 value [1]: the antiviral activity was completely eliminated; also recorded: ND (no inhibition); inhibition of RVFV RNA expression (qRT-PCR) [4]: did not show any inhibition
c1ccc(-c2cccc(OCCCCN3CCNCC3)c2)cc1 [Compound 13a, 1-(4-(Biphenyl-3-yloxy)butyl)piperazine·2HCl] | 10 and 10.4 | 13.8 ± 5.3 | 145 ± 5.5 | IC50 [1, 8]: 13.8 µM; antiviral potency by time of addition [5]: active at early stages of the viral replication cycle, most likely during or just after virus entry; also recorded: progressively lost its potency when added at late stages of the infection cycle; DiBAC4(3) fluorescence intensity (membrane potential) [6]: increased DiBAC4(3) fluorescence intensity (depolarization)
c1ccc(-c2ccccc2OCCCCN2CCNCC2)cc1 [Compound 13b, 1-(4-(Biphenyl-2-yloxy)butyl)piperazine·2HCl] | > 4.7 | 63.5 ± 11.1 | > 300 | 
c1ccc(Cc2ccc(OCCCCN3CCNCC3)cc2)cc1 [Compound 13c, 1-(4-(4-Benzylphenoxy)butyl)piperazine·2HCl] | 9.1 | 15.4 ± 4.7 | 140.3 ± 0.8 | 
c1ccc(Cc2cccc(OCCCCN3CCNCC3)c2)cc1 [Compound 13d, 1-(4-(3-Benzylphenoxy)butyl)piperazine·2HCl] | 5.8 | 22.9 ± 5.2 | 134.2 ± 0.9 | 
c1ccc(Cc2ccccc2OCCCCN2CCNCC2)cc1 [Compound 13e, 1-(4-(2-Benzylphenoxy)butyl)piperazine·2HCl] | 4.7 | 31.2 ± 15.8 | 148.4 ± 1.3 | 
c1ccc(OCCCCN2CCNCC2)cc1 [Compound 13f, 1-(4-Phenoxybutyl)piperazine·2HCl] |  |  | > 300 | EC50 value [1]: completely removed the antiviral activity; also recorded: ND (no inhibition)
CC(=O)c1cccc(-c2ccc(OCCCCN3CCNCC3)cc2)c1 [Compound 13g, 1-(4′-(4-(Piperazin-1-yl)butoxy)biphenyl-3-yl)ethanone·2HCl] |  | 41.9 ± 27.3 | > 300 | 
CN(C)c1cccc(-c2ccc(OCCCCN3CCNCC3)cc2)c1 [Compound 13h, N,N-Dimethyl-4′-(4-(piperazin-1-yl)butoxy)biphenyl-3-amine·3HCl] | 5.3 | 15.5 ± 4.7 | 82.5 ± 15.2 | CC50 value [2]: high toxicity
CC(C)c1ccc(-c2ccc(OCCCCN3CCNCC3)cc2)cc1 [Compound 13i, 1-(4-(4′-Isopropylbiphenyl-4-yloxy)butyl)piperazine·2HCl] | 5.1 | 4.6 ± 0.3 | 23.5 ± 0.1 | 
CC(C)c1cccc(-c2ccc(OCCCCN3CCNCC3)cc2)c1 [Compound 13j, 1-(4-(3′-Isopropylbiphenyl-4-yloxy)butyl)piperazine·2HCl] | 5.4 | 4.7 ± 0.7 | 25.5 ± 8.9 | 
c1cc(C2CCCCC2)ccc1OCCCCN1CCNCC1 [Compound 13l, 1-(4-(4-Cyclohexylphenoxy)butyl)piperazine·2HCl] | 5.6 | 8.8 ± 0.5 | 49.9 ± 10.1 | 
c1cc(C23CC4CC(CC(C4)C2)C3)ccc1OCCCCN1CCNCC1 [Compound 13m, 1-(4-(4-Adamantylphenoxy)butyl)piperazine·2HCl] | 2.4 | 5.4 ± 1.2 | 13.1 | CC50 value [2]: Extreme toxicity
C=C[C@H]1C[N@@]2CC[C@H]1C[C@@H]2[C@@H](O)c1ccnc2ccc(OC)cc12 [quinidine, reference compound] |  |  |  | EC50 ([1]; Rift Valley fever virus, A549, 16 h, read-out: EC50 value, inhibition of RVFV infection (dose-response before membrane potential assay)): 146 µM; IC50 [1, 8]: 164 µM; DiBAC4(3) fluorescence intensity (membrane potential) [6]: increased DiBAC4(3) fluorescence intensity (depolarization)
